Measured values as given in paper PMC3422351, “Lipo-Endomorphin-1 Derivatives with Systemic Activity against Neuropathic Pain without Producing Constipation” (PLoS ONE, 2012).
Read-outs that look alike come from different tables or passages of the source. Square brackets hold non-standard residues; d marks the D form. Peptide text beside a SMILES is read from it. ξ: configuration not given here. Dmt = Cc1cc(O)cc(C)c1C[C@H](N)C(=O)O; ξGly(octyl) = CCCCCCCCC(N)C(=O)O

Columns and labels:
[1] = Caco-2 cell homogenate stability assay; assay type: in vitro ADME, human; details: for half-life: human, Caco-2, pH 7.4, Caco-2 cell homogenate, mean ± SEM, read-out: t 1/2 (min, Caco-2)
Method: A suspension of 5×10^4 Caco-2 cells in 100 µL culture medium was added to the wells of a 96-well cell culture plate. Culture medium supplemented with 1% penicillin/streptomycin (100 U/mL) was changed every second day.
After 21–28 days, the cells were washed with 0.2% EDTA (2×100 µL) and Hank's Balanced Salt Solution containing 25 mM 4-(2-hydroxyethyl)-1-piperazineethanesulfonic acid (HBSS-Hepes, pH 7.4; 3×100 µL). HBSS–Hepes buffer was added to each well (100 µL), and the cells were disrupted by two one-second pulses with a Sonics Vibracell ultrasonic processor set at 60% amplitude at 130 W. The cell debris was removed by centrifugation (2000 rpm, 5 minutes) and the protein content of three wells was determined using the Bio-Rad protein assay kit, by comparison with a standard curve generated from known concentrations of bovine serum albumin. The protein content of the cell homogenate was adjusted to 0.6–0.9 mg/mL in a clean 96-well plate.
The peptides were dissolved in HBSS–Hepes buffer containing 1% DMSO (dimethyl sulfoxide), and each peptide solution (200 µM, 100 µL) was added to three wells and the plate was incubated at 37°C in a shaker at 400 rpm. At pre-selected time points (5, 10, 15, 20, 30, 40, 50, 60, and 120 min), samples (10 µL) were collected and enzymatic digestion was stopped by addition of 5 µL TFA. These samples were then diluted with water (75.5 µl) and DMSO (9.5 µL) and analyzed by LC-MS to determine the concentration of peptide remaining in the solution.
LC-MS was carried out on a Luna Phenomenex C18 column (2.0×50 mm, 5 µm) with a gradient of 100% A (0.1% formic acid in water) to 100% B (0.1% formic acid in acetonitrile/water 9∶1) over 5.5 minutes at a flow rate of 0.3 mL/min. The mass spectrometer was set to selective ion monitoring in the positive ion electrospray mode. A standard curve was generated from standards containing known peptide concentrations, and used to determine the peptide concentration in the samples.

Plasma stability assay = assay type: in vitro ADME; details: human plasma, 37°C, mean ± SEM; read-out: t 1/2 (min, Plasma)
Method: Fresh human plasma was obtained from healthy and consenting volunteers (ethics approval number: 2006000950). The peptides were dissolved in PBS containing 5% DMSO (1 mg/mL), and 300 µL aliquots were mixed with 300 µL of pre-warmed plasma and incubated at 37°C. At selected time points (5, 10, 20, 30, 40, 60, 90, and 120 min), samples (50 µL) were collected and plasma proteins precipitated by addition of acetonitrile (75 µL). After centrifugation (10,000 rpm, 10 minutes), the peptide content of the supernatant was analyzed by HPLC with a Vydac C18 column (4.6×250 mm, 5 µm) at a flow rate of 1 mL/min and a gradient of 100% A (0.1% TFA in water) to 100% B (0.1% TFA in acetonitrile/water 9∶1) over 30 minutes.

[2] = Caco-2 cell permeability assay; assay type: in vitro ADME, human; details: human, Caco-2, pH 7.4, across Caco-2 cell monolayers, mean ± SEM
Method: (§1) A suspension of 10^5 Caco-2 cells (100 µL) in culture medium supplemented with 1% penicillin/streptomycin (100 U/mL) was pipetted into polycarbonate cell culture inserts (pore size 0.4 µm, 6.5 mm diameter, Transwell®) in a 24-well plate, and the same medium was also added to the basolateral chamber (0.6 mL). Medium in both chambers was changed every second day.
(§2) After 21–28 days, the integrity of the tight junctions and the monolayers was assessed by measuring the transepithelial electrical resistance (TEER) using the Millicell-ERS epithelial volt-ohmmeter system (Millipore Corporation). Wells that gave TEER values of 1500–4280 (Ωcm^2) were used for the experiment.
(§3) After the initial TEER test, the Caco-2 cell monolayers were washed with HBSS-Hepes buffer (3×) and then incubated with the same buffer at 37°C. After 30 minutes the buffer was removed from the apical chamber and 100 µL aliquots of peptides, dissolved to a concentration of 200 µM in HBSS-Hepes containing 1% DMSO, were added to at least three wells. As a further test of the Caco-2 cell monolayer integrity, radiolabelled [^14C]-D-mannitol (1.80 µCi) in HBSS-Hepes buffer was added to three wells. The plates were incubated in a shaker set to 400 rpm at 37°C, and samples (0.4 mL) were collected from the basolateral chamber at 30, 90, 120 and 150 minutes and replaced with the same volume of buffer. At the end of the experiment, 50 µL were collected from the apical chamber of each well. LC-MS quantification of the peptides was performed as described in Caco-2 cell homogenate stability assay. The radioactivity of the [^14C]-D-mannitol samples was quantified by liquid scintillation counting (Liquid Scintillation Systems, BECKMAN LS3801, USA), and the apparent permeability (P app) for each compound was calculated using the following equation: [drawing 1] dC/dt steady-state rate of change in the chemical concentration (M/s) or radiochemical concentration (dpm mL/s) in the receiver chamber
(§4) Vr volume of the receiver chamber (mL)
(§5) A surface area of the cell monolayers
(§6) C0 initial concentration in the donor chamber (M or dpm/mL)

Caco-2 cell monolayers = test: Caco-2 cell permeability assay; assay type: in vitro ADME, human; details: for P app (×10^−7, cm/s): across Caco-2 cell monolayers, mean ± SEM; for increase in permeability (P app) compared to peptide 1: Caco-2 cell monolayers, vs 1 in the same experiment
Method: as §1, §2, §3, §4, §5, §6

MOP receptor [3] = molecular target: T1, MOP receptor (Homo sapiens, UniProt P35372); test: SH-SY5Y receptor binding assay ([3H]DAMGO displacement from whole cells); details: DPDPE 1 µM, read-out: K iμ
T1 construct: SH-SY5Y cells, which endogenously expresses MOP and δ-opioid (DOP) receptors; host or cells: SH-SY5Y human neuroblastoma cells
T1 sequence (P35372 whole entry): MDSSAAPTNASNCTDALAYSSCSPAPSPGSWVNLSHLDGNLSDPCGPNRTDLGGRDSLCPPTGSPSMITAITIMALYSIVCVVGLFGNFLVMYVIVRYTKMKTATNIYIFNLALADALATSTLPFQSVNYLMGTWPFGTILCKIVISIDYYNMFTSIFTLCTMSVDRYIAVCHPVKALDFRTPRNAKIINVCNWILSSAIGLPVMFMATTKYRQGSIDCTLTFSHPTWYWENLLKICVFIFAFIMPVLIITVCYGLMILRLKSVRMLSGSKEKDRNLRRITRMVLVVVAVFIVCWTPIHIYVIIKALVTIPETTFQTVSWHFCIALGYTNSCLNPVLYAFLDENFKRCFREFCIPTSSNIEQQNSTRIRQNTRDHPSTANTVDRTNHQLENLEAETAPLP
Method: A suspension of SH-SY5Ycells (10^5 cells per well) was seeded into 24-well plates and incubated overnight. The cells were washed with PBS and pre-incubated with 300 µL binding buffer (50 mM Tris buffer, pH 7.4, 2% BSA). A mixture of [^3H]-DAMGO (100 µL, 15 nM), DPDPE (100 µL, 1 µM) and 100 µL aliquots of each peptide in a range of concentrations (0.1 nM to 100 µM) was added to each well and the plate was incubated at 37°C. An excess of [^3H]-DAMGO (1 µM) was used to determine non-specific binding and buffer (100 µL) was measured as the blank. After 60 minutes, the cells were washed with PBS and 1 M NaOH (0.5 mL) was used to lyse the cells. The radioactivity of the cell suspension was measured by scintillation counting (Liquid Scintillation Systems, BECKMAN LS3801, USA). Data analysis was performed using the one-site competition binding model (GraphPad Prism™ (v5.0) software).

MOP receptor [4] = molecular target: T1, MOP receptor; test: Inhibition of forskolin-stimulated cAMP formation in SH-SY5Y cells; assay type: cell-based
Method: SH-SY5Y cells, which express MOP and DOP receptors, were seeded (10^5 cells/mL, 100 µL) in a 96-well plate and incubated overnight to reach 80% confluence. Culture medium supplemented with 30 µM forskolin was used make peptide solution (100 nM) and aliquots (100 µL) of each peptide were added to three wells. After incubation at 37°C for 30 minutes, the culture medium was removed and lysis buffer from a cAMP Biotrak EIA kit (Amersham, Buckinghamshire, UK) was added, followed by an anti-cAMP antibody. After incubation at 4°C for 2 hours, a cAMP peroxidase conjugate was added and the plate incubated for another hour at 4°C. Then, the cell lysate was incubated with a 3,3′5,5′-tetramethylbenzidine (TMB) substrate provided by the Biotrak EIA kit and finally […] sulfuric acid was added. Absorbance of each well was determined using a plate reader at 450 nm and compared with a cAMP standard curve (concentration 0–3.2 pmol). Data was represented as a percentage of the maximum cAMP response to forskolin, shown as a mean (±SEM) of three separate experiments each performed in triplicate (GraphPad Prism™ (v5.0) software).

[5] = test system: castor oil-induced diarrhea in rats; test: Castor oil-induced diarrhea test in rats; assay type: in vivo, rat
Method: (§7) • Castor oil-induced diarrhea test in rats The ability of test items to inhibit castor-oil induced diarrhea as an index of constipation was assessed. Prior to the start of experimentation, drug-naive rats weighing 200–250 g were fasted for 16 h with free access to water. Individually caged rats were acclimatized for 1 h without access to food or water prior to drug or vehicle administration. […] Rats were gavaged with 1 mL of castor oil five minutes after test item or vehicle administration. Presence or absence of diarrhea was recorded every hour according to a scoring system based on the weight of feces boli and the feces consistency. Weight was scored from 0 (no feces) to 3 (>3 g of feces) and consistency was scored from 0 (normal-shape feces) to 3 (shapeless feces with large amounts of liquid). When both weight of feces and the feces consistency were scored at ≥2, diarrhea was considered to be present. • Charcoal test The charcoal test was assessed in groups of drug-naive rats to measure gastrointestinal (GI) transit. […] The total length of the small intestine from the pylorus to the ileocaecal junction as well as the most distal point of migration of the charcoal meal was measured. The percentage of the distance which the charcoal meal travelled relative to the total length of the small intestine (GI propulsion) was calculated.

[6] = test system: gastrointestinal transit of a charcoal meal in rats; test: Charcoal test (gastrointestinal transit); assay type: in vivo, rat
Method: as §7

[7] = test system: CCI-rat model of neuropathic pain; test: Antinociception in CCI-rat model of neuropathic pain (Von Frey paw withdrawal thresholds); assay type: in vivo; details: morphine i.v. at equi-effective dose, CCI-rats, p<0.001 vs vehicle
Excerpt: Chronic constriction injury (CCI) of the sciatic nerve in the rat was used as a model of neuropathic pain and was induced according to the method of Bennett and Xie [21]. Briefly, rats were anesthetized with 3% isoflurane delivered in oxygen. A 7 mm segment of the left common sciatic nerve was exposed at mid-thigh level, proximal to the sciatic trifurcation. […] The surgical incision was closed by suturing the muscles and skin in layers. To prevent infection, topical antibiotic powder was applied to the wound. The day of CCI surgery was regarded as day 0. Rats were inspected daily considering posture of the affected hindpaw, exploring behavior, body weight, water intake, and signs of autotomy until experimentation day, which was 14 days post-surgery.
Paw withdrawal thresholds (PWT's), expressed in grams, were measured using a set of calibrated Von Frey filaments (Touch Test- North Coast, 800-821-9319). Animals were acclimatized for at least 15 min in wire mesh metabolic cages (20×20×17 cm). Von Frey filaments which delivered forces in the range 2–20 g at 2 g intervals were used according to the up-down method [20]. Filaments were applied to the plantar surface of the footpad of the hindpaw so that the filament bent slightly for 3 seconds. […]

[8] = separate experiment [d] with 1 and 3 tested together

Row | Compound | half-life ([1]; 37°C) | half-life (Plasma stability assay) | Papp A→B at 150 min, 200 µM ([2]; LC/MS) | P app (×10^−7, cm/s) (Caco-2 cell monolayers; LC/MS) | Ki (MOP receptor [3]; mean ± SEM) | IC50 (MOP receptor [4]) | increase in permeability (P app) compared to peptide 1 (Caco-2 cell monolayers) | Papp A→B at 150 min, 200 µM [2, 8] | other results
1 | Cc1cc(O)cc(C)c1C[C@H](N)C(=O)N1CCC[C@H]1C(=O)N[C@@H](Cc1c[nH]c2ccccc12)C(=O)N[C@@H](Cc1ccccc1)C(N)=O [Compound 2] | 24.1 ± 3.6 min | 4.2 ± 1.5 min | 0.25 ± 0.03 ×10⁻⁶ cm/s | 2.5 (±0.3) ×10^−7 cm/s | 0.06 ± 0.01 nM | 0.3 ± 0.02 nM | – | – | –
2 | CCCCCCCCC(N)C(=O)N[C@@H](Cc1c(C)cc(O)cc1C)C(=O)N1CCC[C@H]1C(=O)N[C@@H](Cc1c[nH]c2ccccc12)C(=O)N[C@@H](Cc1ccccc1)C(N)=O (stereo partly shown) [Compound 4] (H-[ξGly(octyl)][Dmt]PWF-NH2) | 96.3 ± 8.3 min | 41.4 ± 3.3 min | 1.24 ± 0.47 ×10⁻⁶ cm/s | 12.4 (±4.7) ×10^−7 cm/s | 0.5 nM | 1.3 ± 0.22 nM | 62 fold | – | increase in Caco-2 cell homogenate stability compared with parent peptide 1 ([1]; vs peptide 1 tested in the same experiment): 34 fold
3 | CCCCCCCCC(N)C(=O)N[C@@H](Cc1ccc(O)cc1)C(=O)N1CCC[C@H]1C(=O)N[C@@H](Cc1c[nH]c2ccccc12)C(=O)N[C@@H](Cc1ccccc1)C(N)=O (stereo partly shown) [Compound 3] (H-[ξGly(octyl)]YPWF-NH2) | – | – | – | – | – | 31.4 ± 1.45 nM | ~90 fold | 9.01 ± 1.22 ×10⁻⁶ cm/s | half-life [1, 8]: 77.4 ± 7.1 min; P app (×10^−7, cm/s) (Caco-2 cell monolayers; [8]): 90.1 (±12.2) ×10^−7 cm/s; Ki (MOP receptor [3]; separate experiment [d] with 1 and 3, mean ± SEM): 25.7 ± 1.3 nM; inhibition of castor oil-induced diarrhea ([5]; i.v. doses up to 16 µmol/kg, p>0.05): No significant inhibition; GI propulsion (%) ([6]; i.v. 16 µmol/kg, mean (± SEM)): 64.3 (±3.0) %
4 | CN1CC[C@]23c4c5ccc(O)c4O[C@H]2[C@@H](O)C=C[C@H]3[C@H]1C5 [morphine, reference compound] | – | – | – | – | – | – | – | – | antinociception in the contralateral (uninjured) hindpaw [7]: produced significant antinociceptive activity; inhibition of castor oil-induced diarrhea ([5]; i.v. 2 µmol/kg, p<0.001): inhibited castor oil-induced diarrhea significantly; GI propulsion (%) ([6]; i.v. 2 µmol/kg, mean ± SEM, p<0.001): 29.5±4.6%
5 | NC(=O)[C@H](Cc1ccccc1)NC(=O)[C@H](Cc1c[nH]c2ccccc12)NC(=O)[C@@H]1CCCN1C(=O)[C@@H](N)Cc1ccc(O)cc1 [Compound 1, Tyr-Pro-Trp-Phe-NH2, reference compound] | – | – | 0.02 ± 0.002 ×10⁻⁶ cm/s | 0.2 (±0.02) ×10^−7 cm/s | – | – | – | 0.1 ± 0.034 ×10⁻⁶ cm/s | –
